Measured values: patent publication US9481662B2, “Seriniquinones, melanoma-specific anticancer agents” (The Regents of the University of California, priority 2012, dated 2016)
Read-outs that look alike come from different tables or passages of the source. Blank lines part the entries; values can stand above or below the compound they belong to.

Key:
HCT-116 cells [1] = assay: Cytotoxicity analysis (MTT/MTS) in HCT-116 colon carcinoma cells; format: cell-based, human; conditions: for IC50: Homo sapiens
Text: Fortunately, 1 was fluorescent with excitation maxima at 250 nm (ε=20,800 cm^−1M^−1), 289 nm (ε=24,000 cm^−1M^−1) and 342 nm (ε=6900 cm^−1M^−1) and a broad emission from 490-680 nm. Using confocal microscopy, red and green fluorescence from 1 appeared in HCT-116 cells within minutes of addition (FIG. 3A). […] Time course confocal imaging studies were then combined with conventional activity MTT assays^6 to provide a detailed correlation between cellular localization and cytostatic activity.
HCT-116 colon carcinoma cells were plated in 96-well plates at 2.5×10^4 cells/well. After 24 h, the cultures were treated with a single concentration seriniquinone (1) within the range of 0.02-20.0 μM, etoposide (positive control) in the range of 0.05-50 μM or 1% DMSO (negative control). The cells were incubated for either 24 h, 48 h or 72 h. At the end of the incubation period, cultures were added with 3-(4,5-dimethylthiazol-2-yl)-5-(3-carboxymethoxyphenyl)-2-(4-sulfophenyl)-2H-tetrazolium (MTS) for 3 h. Cell viability was quantified by the ability of living cells to reduce the yellow MTS dye to a purple formazan product. Time course experiments were also conducted in HCT-116 cells. Cells were exposed to 1 over short periods (1 h, 3 h, 6 h, and 9 h) followed by incubation in drug-free media to complete a total of 24 h incubation before addition of MTS.

DCD-1L = assay: Covalent labeling of DCD-1L peptide (fluorescent band on SDS-PAGE); format: binding, human; conditions: 50 μM; for covalent labeling of DCD-1L: 37° C., 24 h; for fluorescent labeling of DCD-1L fragment: PBS pH 7.2, 5% DMSO, 23° C., 24 h (FIG. 5E)
Text: FIGS. 5A-5E: Seriniquinone (1) targets dermcidin (DCD). […] Sequence listing (FIG. 5B): […] (SEQ ID NO:3); […] (SEQ ID NO:4).
The reactivity between 1 and DCD was then examined. […] These studies now provided initial support for the formation of a unique trimeric covalent adduct, compound 15, between 1, DCD and targeted proteins such as GADPH.

[2] = Stability on storage / in solution; format: physicochemical
NCI-60 cell line = NCI-60 cell line screen; format: cell-based; conditions: Homo sapiens; mean over NCI-60 panel
Description: (§1) This was further supported by the fact that 1 enhanced activity in melanoma cell lines with maximum activity against MALME-3M cells (GI50 value of 60 nM). With this in hand, chemical biological methods were applied to further probe this biological response.

DNA = assay: In vitro DNA fragmentation assays; format: biochemical
MALME-3M cells = assay: NCI-60 cell line screen, melanoma line MALME-3M; format: cell-based; conditions: Homo sapiens, maximum activity in the panel
Description: as §1

HCT-116 cells [3] = assay: Western blot analysis of cell cycle, apoptotic and autophagy markers; format: cell-based, human
Description: HCT-116 cells (1×10^6 cells/mL) were seeded in 75 cm^2 cell culture flasks and, 24 h later, treated with 3 μM 1, 30 μM 1, 17 μM etoposide (positive control), or 0.3% DMSO (negative control). After 24 h incubation, cells were washed in PBS, harvested and lysed in RIPA buffer. Protein extracts were quantified by an adapted micro-method of the Lowry assay using the DC Protein Assay kit (BioRad Laboratories). Equal amounts of protein (30 μg) from each treatment were fractionated using SDS-PAGE 5-15% gel and transferred to a PVDF membrane (BioRad Laboratories). The membranes were incubated overnight at 4° C. with primary antibodies for caspase-3, cleaved caspase-3, caspase 7, cleaved caspase-7, caspase-9, cleaved caspase-9, PARP, cleaved PARP, cyclin A, cyclin B1, cyclin D1, cyclin D3, cyclin D3, cyclin E1, cyclin E2, LC3A, LC3B or dermcidin (Santa Cruz Biotech). β-actin (Abcam) was used to normalize protein loading. After washing with TBS containing 0.1% Tween-20, the membranes were incubated with the appropriate secondary antibody alkaline phosphatase conjugate (Cell Signaling Technology Inc.), followed by BCIP/NBT color development substrate (Perkin-Elmer).

HCT-116 cells [4] = assay: Confocal microscopy subcellular localization; format: cell-based, human; conditions: confocal imaging with counterstains
Description: Confocal studies were conducted on a LSM 710 inverted confocal microscope (Zeiss) with scanning module with 3 detection channels, Plan-Apochromat 63×/1.4 na objective, diode laser (405 nm, CW pulsed, 30 mW), Ar-laser (458 nm, 488 nm, 514 nm, 25 mW), HeNe-laser (543 nm, 1 mW) and HeNe-laser (633 nm, 5 mW). For all procedures, cells were seeded 24 h prior to treatment, to allow for adequate attachment to the well or flask bottom. Cells were plated in glass-bottom dishes (MatTek Corporation) for microscopic analyses at 1×10^5 cells/mL. Compounds were added to cells under 1 mL of media from […] such that the DMSO content remained under 0.1%. […]
Colocalization studies were conducted by treating cells (HCT-116 or MALME-3M) at a density of 1×10^5 cells/cm^2 in a 35 mm glass-bottom dish (MatTek Corporation). […] After 30 min, cells were washed PBS (4×1 mL) and immediately analyzed by confocal microscope. […] The localization of seriniquinone (1) was acquired by red fluorescence with emission at 550-631 nm, while the ER-tracker was acquired by blue florescence with emission at 406-450 nm. […] After 15 min, cells were washed PBS (4×1 mL) and immediately analyzed by confocal microscope. […] The localization of seriniquinone (1) was acquired by red fluorescence with emission at 550-631 nm, while the ER-tracker was acquired by blue florescence with emission at 415-530 nm.

HCT-116 cells [5] = assay: Cell cycle and DNA fragmentation analysis (FACS / ImageStream); format: cell-based, human
Description: Cell cycle was analyzed by the ImageStream® cell analysis system (Amnis). Briefly, HCT-116 cells (1×10^5 cells/mL) were seeded in 24-well plates, and 24 h later, 0.3 μM 1, 3 μM 1, 30 μM 1 or 17 μM etoposide (positive control) or 1% DMSO (negative control) was added to the cultures. After 18 h or 24 h incubation, cells were recovered by treatment with 0.05% trypsin-EDTA solution (GIBCO-BRL). An 100 μL aliquot of these cells were incubated for 30 min in the dark with a hypotonic solution containing 50 μg/mL propidium iodide, 0.1% sodium citrate, and 0.1% Triton X-100. Fluorescence was measured and DNA fragmentation and cell cycle were analyzed using ModFit LT for Win32 version 3.1.

[6] = HCT-116, Table 1, read-out: HCT 116 IC50

SMILES: Nc1ccc2c(=O)c3c(sc4c(=O)c5ccc(N)cc5c(=O)c43)c(=O)c2c1 [p4]
IC50 (HCT-116 cells [1]; [6]): 2.2 µM

SMILES: O=C(O)CCc1ccc2c(=O)c3c(sc4c(=O)c5ccccc5c(=O)c43)c(=O)c2c1 [acid 11, 3-(5,7,12,13-Tetraoxo-5,7,12,13-tetrahydrodinaphtho[2,3-b:2′,3′-d]-thiophen-3-yl)-propanoic acid]
covalent labeling of DCD-1L (DCD-1L): covalently label DCD-1L

SMILES: Nc1cccc2c(=O)c3c(sc4c(=O)c5cccc(N)c5c(=O)c43)c(=O)c12 [p20]
IC50 (HCT-116 cells [1]; [6]): 0.78 µM

storage stability of pure material ([2]; 1 month at −20° C.): significant decomposition
SMILES: CC(C)=CCCc1ccc2c(=O)c3c(sc4c(=O)c5ccccc5c(=O)c43)c(=O)c2c1 [alkene 10, 3-(4-Methylpent-3-en-1-yl)dinaphtho[2,3-b:2′,3′-d]thiophene-5,7,12,13-tetraone]
covalent labeling of DCD-1L (DCD-1L): covalently label DCD-1L | fluorescent labeling of DCD-1L fragment (DCD-1L): fluorescent bands corresponding to DCD-1L

SMILES: Oc1c2ccccc2c(O)c2c1sc1c(O)c3ccccc3c(O)c12 [Compound S23]
stability in solution ([2]; in solution): oxidizes rapidly back to S22a in solution

SMILES: O=c1c2cc(O)ccc2c(=O)c2c1sc1c(=O)c3ccc(O)cc3c(=O)c12 [p6]
IC50 (HCT-116 cells [1]; [6]): 1.9 µM

SMILES: O=C(Nc1ccc2c(=O)c3c(sc4c(=O)c5ccc(NC(=O)C(F)(F)F)cc5c(=O)c43)c(=O)c2c1)C(F)(F)F [p12]
IC50 (HCT-116 cells [1]; [6]): 0.71 µM

SMILES: O=c1c2cc(Cl)ccc2c(=O)c2c1sc1c(=O)c3ccc(Cl)cc3c(=O)c12 [p9]
IC50 (HCT-116 cells [1]; [6]): 0.55 µM

SMILES: CC(=O)Oc1ccc2c(=O)c3c(sc4c(=O)c5ccc(OC(C)=O)cc5c(=O)c43)c(=O)c2c1 [p14]
IC50 (HCT-116 cells [1]; [6]): 2.1 µM

SMILES: O=c1c2cccc(O)c2c(=O)c2c1sc1c(=O)c3c(O)cccc3c(=O)c12 [p21]
IC50 (HCT-116 cells [1]; [6]): 0.7 µM

SMILES: O=c1c2ccccc2c(=O)c2c1sc1c(=O)c3ccccc3c(=O)c12 [Compound 1, dinaphtho[2,3-b:2′,3′-d]thiophene-5,7,12,13-tetraone]
GI50 (NCI-60 cell line): 0.91 µM | LC50 (concentration giving 50% cell kill) (NCI-60 cell line): 18.6 µM | DNA fragmentation in vitro (DNA): failed to induce DNA fragmentation | covalent labeling of DCD-1L (DCD-1L): covalently label DCD-1L | fluorescent labeling of DCD-1L fragment (DCD-1L): fluorescent bands corresponding to DCD-1L | GI50 (MALME-3M cells): 0.06 µM | IC50 (HCT-116 cells [1]; [6]): 0.35 µM | IC50 (HCT-116 cells [1]; HCT-116 cells treated over 24 h period, MTT assay, read-out: IC50): 0.64 ± 0.06 µM | cleavage of caspases and PARP (HCT-116 cells [3]; HCT-116 cells): induced cleavage of caspases 3, 7 and 9 PARP | induction of autophagy (LC3A/LC3B conversion, Western blot) (HCT-116 cells [3]; HCT-116 cells, 24 h): induced autophagy | cyclin expression (HCT-116 cells [3]; HCT-116 treated cells): strong reduction in the expression of the cyclins D1, D2 and D3 | subcellular localization (HCT-116 cells [4]): appeared soon after treatment in the ER | DNA fragmentation (cells with subdiploid DNA) (HCT-116 cells [5]): concentration dependent DNA fragmentation | cell cycle phase of remaining cells (HCT-116 cells [5]): S to G2 phase

SMILES: O=c1c2ccccc2c(=O)c2sc3c(=O)c4ccccc4c(=O)c3sc12 [p2]
HCT 116 IC50, μM (HCT-116 cells [1]; Table 1): NSA

SMILES: O=C(Nc1cccc2c(=O)c3c(sc4c(=O)c5cccc(NC(=O)C(F)(F)F)c5c(=O)c43)c(=O)c12)C(F)(F)F [p23]
IC50 (HCT-116 cells [1]; [6]): 0.078 µM
